Drawing on patent publication US10519177B2, “Heterocyclic compounds and uses thereof” (Plexxikon Inc., priority 2013, dated 2019), this text covers IC50 for 33 molecules.

pIC50: −log10 of the molar value. Some results are limits rather than exact numbers.

This assay deals with bromodomain. The assay can be described thus: at least one of the bromodomain cell assays of Example 57. The class given is cell-based. Particulars: at least one of the bromodomain cell assays described in Example 57; read-out: IC50 in at least one of the bromodomain cell assays.

The pIC50 is the negative decadic logarithm of the IC50, by convention in mol/L. Turning to `CCOC(=O)c1ccc(-c2cn([C@@H](c3ccccc3)c3ccccn3)c3cc(-c4c(C)noc4C)ccc23)cc1` [P-0752, ethyl 4-[6-(3,5-dimethylisoxazol-4-yl)-1-[(S)-phenyl(2-pyridyl)methyl]indol-3-yl]benzoate], the pIC50 was greater than 5.00.

Take `Cc1noc(C)c1-c1ccc2c(-c3ccc(CO)cc3)cn([C@@H](c3ccccc3)c3ccccn3)c2c1` [P-0753, [4-[6-(3,5-dimethylisoxazol-4-yl)-1-[(S)-phenyl(2-pyridyl)methyl]indol-3-yl]phenyl]methanol]: the negative-log IC50 (pIC50) is greater than 5.00.

`Cc1noc(C)c1-c1ccc2c(-c3ccc(C#N)nc3)cn([C@@H](c3ccccc3)c3ccccn3)c2c1` [P-0754, 5-[6-(3,5-dimethylisoxazol-4-yl)-1-[(S)-phenyl(2-pyridyl)methyl]indol-3-yl]pyridine-2-carbonitrile]: the pIC50 is greater than 5.00.

Take `Cc1noc(C)c1-c1ccc2c(-c3ccc(C(=O)O)cc3)cn([C@H](c3ccccc3)c3ccccn3)c2c1` [P-0755, 4-[6-(3,5-dimethylisoxazol-4-yl)-1-[(R)-phenyl(2-pyridyl)methyl]indol-3-yl]benzoic acid]: the pIC50 is greater than 5.00.

Turning to `CCOC(=O)c1ccc(-c2cn([C@H](c3ccccc3)c3ccccn3)c3cc(-c4c(C)noc4C)ccc23)cc1` [P-0756, ethyl 4-[6-(3,5-dimethylisoxazol-4-yl)-1-[(R)-phenyl(2-pyridyl)methyl]indol-3-yl]benzoate], the pIC50 was greater than 5.00.

Turning to `Cc1noc(C)c1-c1ccc2c(-c3ccc(CO)cc3)cn([C@H](c3ccccc3)c3ccccn3)c2c1` [P-0757, [4-[6-(3,5-dimethylisoxazol-4-yl)-1-[(R)-phenyl(2-pyridyl)methyl]indol-3-yl]phenyl]methanol], the negative-log IC50 (pIC50) is greater than 5.00.

For `Cc1noc(C)c1-c1ccc2c(-c3ccc(C#N)nc3)cn([C@H](c3ccccc3)c3ccccn3)c2c1` [P-0758, 5-[6-(3,5-dimethylisoxazol-4-yl)-1-[(R)-phenyl(2-pyridyl)methyl]indol-3-yl]pyridine-2-carbonitrile], the pIC50 is greater than 5.00.

As to `Cc1cc(-c2cnc3c(-c4ccc(C(=O)O)cc4)cn(CC4CCCCC4)c3c2)cn(C)c1=O` [P-0759, 4-[1-(cyclohexylmethyl)-6-(1,5-dimethyl-6-oxo-3-pyridyl)pyrrolo[3,2-b]pyridin-3-yl]benzoic acid], the negative-log IC50 (pIC50) was greater than 5.00.

With `Cc1cc(-c2ccc3c(-c4ccc(C(=O)O)cc4)cn(CC4CCCCC4)c3c2)cn(C)c1=O` [P-0760, 4-[1-(cyclohexylmethyl)-6-(1,5-dimethyl-6-oxo-3-pyridyl)indol-3-yl]benzoic acid], the negative-log IC50 (pIC50) is greater than 5.00.

As to `Cc1cc(-c2cnc3c(-c4ccc(C(=O)O)cc4)cn([C@@H](C)c4ccccn4)c3c2)cn(C)c1=O` [P-0761, 4-[6-(1,5-dimethyl-6-oxo-3-pyridyl)-1-[(1S)-1-(2-pyridyl)ethyl]pyrrolo[3,2-b]pyridin-3-yl]benzoic acid], the pIC50 was greater than 5.00.

On to `Cc1cc(-c2ccc3c(-c4ccc(C(=O)O)cc4)cn([C@@H](C)c4ccccn4)c3c2)cn(C)c1=O` [P-0762, 4-[6-(1,5-dimethyl-6-oxo-3-pyridyl)-1-[(1S)-1-(2-pyridyl)ethyl]indol-3-yl]benzoic acid], for which the pIC50 is greater than 5.00.

In the case of `Cn1cc(-c2ccc3c(-c4ccc(C(=O)O)cc4)cn(CC4CCCCC4)c3c2)cc(Cl)c1=O` [P-0763, 4-[6-(5-chloro-1-methyl-6-oxo-3-pyridyl)-1-(cyclohexylmethyl)indol-3-yl]benzoic acid], the negative-log IC50 (pIC50) was greater than 5.00.

`Cn1cc(-c2cnc3c(-c4ccc(C(=O)O)cc4)cn(CC4CCCCC4)c3c2)cc(Cl)c1=O` [P-0764, 4-[6-(5-chloro-1-methyl-6-oxo-3-pyridyl)-1-(cyclohexylmethyl)pyrrolo[3,2-b]pyridin-3-yl]benzoic acid]: the negative-log IC50 (pIC50) was greater than 5.00.

Consider `C[C@@H](c1ccccn1)n1cc(-c2ccc(C(=O)O)cc2)c2ccc(-c3cc(Cl)c(=O)n(C)c3)cc21` [P-0765, 4-[6-(5-chloro-1-methyl-6-oxo-3-pyridyl)-1-[(1S)-1-(2-pyridyl)ethyl]indol-3-yl]benzoic acid], for which the pIC50 was greater than 5.00.

On to `C[C@@H](c1ccccn1)n1cc(-c2ccc(C(=O)O)cc2)c2ncc(-c3cc(Cl)c(=O)n(C)c3)cc21` [P-0766, 4-[6-(5-chloro-1-methyl-6-oxo-3-pyridyl)-1-[(1S)-1-(2-pyridyl)ethyl]pyrrolo[3,2-b]pyridin-3-yl]benzoic acid], for which the negative logarithm of the IC50 (pIC50) was greater than 5.00.

Turning to `Cc1noc(C)c1-c1cnc2c(-c3ccc(C(=O)O)cc3)cn(CC3(C)COC3)c2c1` [P-0767, 4-[6-(3,5-dimethylisoxazol-4-yl)-1-[(3-methyloxetan-3-yl)methyl]pyrrolo[3,2-b]pyridin-3-yl]benzoic acid], the negative logarithm of the IC50 (pIC50) was greater than 5.00.

Consider `Cc1noc(C)c1-c1cnc2c(-c3ccc(C(=O)O)cc3)cn(CC3CCCCO3)c2c1` (stereo not drawn) [P-0768, 4-[6-(3,5-dimethylisoxazol-4-yl)-1-(tetrahydrpyran-2-ylmethyl)pyrrolo[3,2-b]pyridin-3-yl]benzoic acid], for which the pIC50 was greater than 5.00.

For `Cc1noc(C)c1-c1cnc2c(-c3ccc(C(=O)O)cc3)cn(CC3CCOCC3)c2c1` [P-0769, 4-[6-(3,5-dimethylisoxazol-4-yl)-1-(tetrahydropyran-4-ylmethyl)pyrrolo[3,2-b]pyridin-3-yl]benzoic acid], the pIC50 was greater than 5.00.

As for `Cc1noc(C)c1-c1cnc2c(-c3ccc(CC(=O)O)cc3)cn(CC3CCOCC3)c2c1` [P-0771, 2-[4-[6-(3,5-dimethylisoxazol-4-yl)-1-(tetrahydropyran-4-ylmethyl)pyrrolo[3,2-b]pyridin-3-yl]phenyl]acetic acid], the pIC50 was greater than 5.00.

Consider `Cc1noc(C)c1-c1cnc2c(-c3ccc(C4(C(=O)O)CC4)cc3)cn(CC3CCOCC3)c2c1` [P-0772, 1-[4-[6-(3,5-dimethylisoxazol-4-yl)-1-(tetrahydropyran-4-ylmethyl)pyrrolo[3,2-b]pyridin-3-yl]phenyl]cyclopropanecarboxylic acid], for which the negative-log IC50 (pIC50) was greater than 5.00.

`Cc1noc(C)c1-c1cnc2c(-c3ccc(C(C)(C)C(=O)O)cc3)cn(CC3CCOCC3)c2c1` [P-0773, 2-[4-[6-(3,5-dimethylisoxazol-4-yl)-1-(tetrahydropyran-4-ylmethyl)pyrrolo[3,2-b]pyridin-3-yl]phenyl]-2-methyl-propanoic acid]: the negative-log IC50 (pIC50) is greater than 5.00.

For the molecule `Cc1noc(C)c1-c1cnc2c(-c3ccc(C4(C(=O)O)CC4)cc3)cn(CC3(C)CCOCC3)c2c1` [P-0777, 1-[4-[6-(3,5-dimethylisoxazol-4-yl)-1-[(4-methyltetrahydropyran-4-yl)methyl]pyrrolo[3,2-b]pyridin-3-yl]phenyl]cyclopropanecarboxylic acid], the negative-log IC50 (pIC50) was greater than 5.00.

Consider `Cc1noc(C)c1-c1ccc2c(-c3ccc(C(=O)O)cc3)cn(CC3(C)CCCCC3)c2c1` [P-0779, 4-[6-(3,5-dimethylisoxazol-4-yl)-1-[(1-methylcyclohexyl)methyl]indol-3-yl]benzoic acid], for which the pIC50 is greater than 5.00.

For the molecule `COc1cc(-c2cn(CC3(C)CCCCC3)c3cc(-c4c(C)noc4C)cnc23)ccc1C(=O)O` [P-0780, 4-[6-(3,5-dimethylisoxazol-4-yl)-1-[(1-methylcyclohexyl)methyl]pyrrolo[3,2-b]pyridin-3-yl]-2-methoxy-benzoic acid], the pIC50 is greater than 5.00.

For the molecule `Cc1noc(C)c1-c1cnc2c(-c3ccc(CC(=O)O)cc3)cn(CC3(C)CCCCC3)c2c1` [P-0781, 2-[4-[6-(3,5-dimethylisoxazol-4-yl)-1-[(1-methylcyclohexyl)methyl]pyrrolo[3,2-b]pyridin-3-yl]phenyl]acetic acid], the negative-log IC50 (pIC50) was greater than 5.00.

In the case of `Cc1noc(C)c1-c1cnc2c(-c3ccc(C4(C(=O)O)CC4)cc3)cn(CC3(C)CCCCC3)c2c1` [P-0782, 1-[4-[6-(3,5-dimethylisoxazol-4-yl)-1-[(1-methylcyclohexyl)methyl]pyrrolo[3,2-b]pyridin-3-yl]phenyl]cyclopropanecarboxylic acid], the pIC50 is greater than 5.00.

As for `Cc1noc(C)c1-c1cnc2c(-c3ccc(C(C)(C)C(=O)O)cc3)cn(CC3(C)CCCCC3)c2c1` [P-0783, 2-[4-[6-(3,5-dimethylisoxazol-4-yl)-1-[(1-methylcyclohexyl)methyl]pyrrolo[3,2-b]pyridin-3-yl]phenyl]-2-methyl propanoic acid], the pIC50 is greater than 5.00.

In the case of `[2H]C([2H])([2H])c1ccc(-c2cn(CC3CCCCC3)c3cc(-c4c(C)noc4C)cnc23)cc1` [P-0785, 4-[1-(cyclohexylmethyl)-3-[4-(trideuteriomethyl)phenyl]pyrrolo[3,2-b]pyridin-6-yl]-3,5-dimethyl-isoxazole], the negative-log IC50 (pIC50) was greater than 5.00.

`[2H]C([2H])([2H])c1ccc(-c2cn([C@@H](c3ccccc3)c3ccccn3)c3cc(-c4c(C)noc4C)cnc23)cc1` [P-0786, 3,5-dimethyl-4-[1-[(S)-phenyl(2-pyridyl)methyl]-3-[4-(trideuteriomethyl)phenyl]pyrrolo[3,2-b]pyridin-6-yl]isoxazole]: the pIC50 is greater than 5.00.

Turning to `[2H]C([2H])([2H])c1ccc(-c2cn([C@H](c3ccccc3)c3ccccn3)c3cc(-c4c(C)noc4C)cnc23)cc1` [P-0787, 3,5-dimethyl-4-[1-[(R)-phenyl(2-pyridyl)methyl]-3-[4-(trideuteriomethyl)phenyl]pyrrolo[3,2-b]pyridin-6-yl]isoxazole], the pIC50 was greater than 5.00.

In the case of `Cc1ccc(-c2cn([C@@H](c3ccccc3)c3ccccn3)c3cc(-c4c(C)noc4C)ccc23)cc1` [P-0789, 3,5-dimethyl-4-[1-[(S)-phenyl(2-pyridyl)methyl]-3-(p-tolyl)indol-6-yl]isoxazole], the negative-log IC50 (pIC50) was greater than 5.00.

Take `Cc1ccc(-c2cn([C@H](c3ccccc3)c3ccccn3)c3cc(-c4c(C)noc4C)ccc23)cc1` [P-0790, 3,5-dimethyl-4-[1-[(R)-phenyl(2-pyridyl)methyl]-3-(p-tolyl)indol-6-yl]isoxazole]: the negative-log IC50 (pIC50) was greater than 5.00.

For `Cc1ccc(-c2cn([C@@H](C)c3ccccn3)c3cc(-c4cc(C)c(=O)n(C)c4)cnc23)cc1` [P-0791, 1,3-dimethyl-5-[3-(p-tolyl)-1-[(1S)-1-(2-pyridyl)ethyl]pyrrolo[3,2-b]pyridin-6-yl]pyridin-2-one], the pIC50 is greater than 5.00.
